Activity calls are given as the source filed them. The rule behind the calls is not given here.
Assays:
[1] = system: HCT-116; assay: Cytotoxicity against human HCT-116 cells assessed as reduction in cell viability measured after 48 hrs by AlamarBlue assay; format: functional, cell-based; conditions: HCT-116, 48 h
[2] = system: DLD-1; assay: Cytotoxicity against human DLD-1 cells assessed as reduction in cell viability measured after 48 hrs by AlamarBlue assay; format: functional, cell-based; conditions: DLD-1, 48 h
[3] = system: HT-29; assay: Cytotoxicity against human HT-29 cells assessed as reduction in cell viability measured after 48 hrs by AlamarBlue assay; format: functional, cell-based; conditions: HT-29, 48 h
[4] = system: FHC; assay: Cytotoxicity against human FHC cells assessed as reduction in cell viability measured after 48 hrs by AlamarBlue assay; format: cell-based
[5] = Cytotoxicity against human FHs74Int cells assessed as reduction in cell viability measured after 48 hrs by AlamarBlue assay; format: cell-based
[6] = Cytotoxicity against human THLE-3 cells assessed as reduction in cell viability measured after 48 hrs by AlamarBlue assay; format: cell-based; conditions: for CC50 at 48 h: THLE-3 cells; for CC50: thle-3, 48 h
[7] = (§1) Cytotoxicity against human HEK293 cells assessed as reduction in cell viability measured after 48 hrs by AlamarBlue assay; format: cell-based; conditions: HEK293 cells
[8] = system: HCT-116; assay: Induction of apoptosis in human HCT-116 cells at 100 uM incubated for 48 hrs by AnnexinV-FITC/PI staining based flow cytometry; format: functional, cell-based
[9] = biological target: T1, E. coli GroEL/ES (Escherichia coli, UniProt P0A6F5); assay: Inhibition of Escherichia coli GroEL/ES-mediated refolding of the denatured malate dehydrogenase; format: protein-complex assay
T1 sequence (P0A6F5 whole entry, looked up): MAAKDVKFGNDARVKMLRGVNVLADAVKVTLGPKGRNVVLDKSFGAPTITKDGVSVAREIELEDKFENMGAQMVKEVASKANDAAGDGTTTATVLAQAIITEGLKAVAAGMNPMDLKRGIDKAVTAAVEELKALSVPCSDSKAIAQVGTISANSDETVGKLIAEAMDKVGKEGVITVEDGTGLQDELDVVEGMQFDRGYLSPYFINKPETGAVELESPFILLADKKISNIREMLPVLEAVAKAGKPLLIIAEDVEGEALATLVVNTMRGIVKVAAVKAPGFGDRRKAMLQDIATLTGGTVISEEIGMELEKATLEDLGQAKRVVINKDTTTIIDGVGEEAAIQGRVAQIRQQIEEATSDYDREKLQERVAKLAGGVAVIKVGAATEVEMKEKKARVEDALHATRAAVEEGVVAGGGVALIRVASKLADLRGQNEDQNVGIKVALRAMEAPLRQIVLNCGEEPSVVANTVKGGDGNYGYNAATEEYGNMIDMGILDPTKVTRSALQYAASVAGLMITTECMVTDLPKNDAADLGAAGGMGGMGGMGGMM

[10] = biological target: T1, E. coli GroEL/ES; assay: Inhibition of Escherichia coli GroEL/ES-mediated refolding of the denatured rhodanese; format: protein-complex assay
[11] = biological target: HSP60/HSP10 (Homo sapiens, UniProt P10809); assay: Inhibition of human mitochondrial HSP60/10-mediated refolding of the denatured malate dehydrogenase; format: mitochondria, Mitochondria
Sequence of HSP60/HSP10 (P10809 whole entry): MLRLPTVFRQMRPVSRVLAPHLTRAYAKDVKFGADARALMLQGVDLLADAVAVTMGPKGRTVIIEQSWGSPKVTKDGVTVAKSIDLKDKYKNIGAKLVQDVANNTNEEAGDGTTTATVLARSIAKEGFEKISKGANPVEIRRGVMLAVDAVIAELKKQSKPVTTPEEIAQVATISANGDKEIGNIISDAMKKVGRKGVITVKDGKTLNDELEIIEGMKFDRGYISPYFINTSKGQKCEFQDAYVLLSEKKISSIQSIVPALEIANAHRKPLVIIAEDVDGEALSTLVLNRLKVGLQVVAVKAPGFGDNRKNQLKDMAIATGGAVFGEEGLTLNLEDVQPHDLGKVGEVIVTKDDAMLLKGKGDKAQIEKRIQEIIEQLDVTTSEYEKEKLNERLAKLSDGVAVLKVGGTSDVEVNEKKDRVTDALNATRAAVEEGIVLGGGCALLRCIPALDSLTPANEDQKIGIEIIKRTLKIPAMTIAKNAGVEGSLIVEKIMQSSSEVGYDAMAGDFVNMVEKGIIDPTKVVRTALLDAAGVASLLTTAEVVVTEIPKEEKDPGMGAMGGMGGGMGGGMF
Sequence of HSP60/HSP10 (P61604 whole entry, further chain): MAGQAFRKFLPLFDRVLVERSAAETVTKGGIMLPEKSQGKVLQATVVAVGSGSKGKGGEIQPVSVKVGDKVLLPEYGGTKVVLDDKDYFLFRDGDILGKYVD

[12] = system: DLD-1; assay: Inhibition of clonogenicity in human DLD-1 cells assessed as reduction in number of colony formation incubated for 72 hrs followed by culturing in fresh compound-free medium for 7 days by crystal violet staining based analysis; format: functional, cell-based
[13] = system: HT-29; assay: Inhibition of clonogenicity in human HT-29 cells assessed as reduction in number of colony formation incubated for 72 hrs followed by culturing in fresh compound-free medium for 7 days by crystal violet staining based analysis; format: functional, cell-based
[14] = system: HCT-116; assay: Inhibition of clonogenicity in human HCT-116 cells assessed as reduction in number of colony formation incubated for 72 hrs followed by culturing in fresh compound-free medium for 7 days by crystal violet staining based analysis; format: functional, cell-based
[15] = system: DLD-1; assay: Inhibition of clonogenicity in human DLD-1 cells assessed as reduction in size of colony incubated for 72 hrs followed by culturing in fresh compound-free medium for 7 days by crystal violet staining based analysis; format: functional, cell-based
[16] = system: HT-29; assay: Inhibition of clonogenicity in human HT-29 cells assessed as reduction in size of colony incubated for 72 hrs followed by culturing in fresh compound-free medium for 7 days by crystal violet staining based analysis; format: functional, cell-based
[17] = system: HCT-116; assay: Inhibition of clonogenicity in human HCT-116 cells assessed as reduction in size of colony incubated for 72 hrs followed by culturing in fresh compound-free medium for 7 days by crystal violet staining based analysis; format: functional, cell-based
[18] = system: HCT-116; assay: Inhibition of cell migration in human HCT-116 cells measured at 72 hrs by scratch wound healing assay based phase contrast microscopy; format: functional; conditions: HCT-116, 72 h
[19] = system: HCT-116; assay: Inhibition of cell migration in human HCT-116 cells at 10 uM measured at >=20 hrs by scratch wound healing assay based phase contrast microscopy; format: functional; conditions: time hrs >=20
[20] = system: DLD-1; assay: Inhibition of clonogenicity in human DLD-1 cells assessed as reduction in colony formation at 50 uM incubated for 72 hrs followed by culturing in fresh compound-free medium for 7 days by crystal violet staining based analysis; format: functional
[21] = system: HCT-116; assay: Inhibition of clonogenicity in human HCT-116 cells assessed as reduction in colony formation at 50 uM incubated for 72 hrs followed by culturing in fresh compound-free medium for 7 days by crystal violet staining based analysis; format: functional
[22] = system: HT-29; assay: Inhibition of clonogenicity in human HT-29 cells assessed as reduction in colony formation at 50 uM incubated for 72 hrs followed by culturing in fresh compound-free medium for 7 days by crystal violet staining based analysis; format: functional
[23] = system: HCT-116; assay: Induction of cell death in human HCT-116 cells assessed as loss of cell monolayer integrity and cytoplasm extrusion at 100 uM measured for 72 hrs by phase contrast microscopy; format: functional, cell-based
[24] = Inhibition of refolded MDH (unknown origin)-mediated oxidation of NADPH in presence of mesoxalic acid treated with compound after refolding of the denatured enzyme; parameters: species or system Homo sapiens
[25] = biological target: T2, Thiosulfate sulfurtransferase (Homo sapiens, UniProt Q16762); assay: Inhibition of refolded Rhodanese (unknown origin)-mediated conversion of cyanide to thiocyanate treated with compound after refolding of the denatured enzyme
T2 sequence (Q16762 whole entry): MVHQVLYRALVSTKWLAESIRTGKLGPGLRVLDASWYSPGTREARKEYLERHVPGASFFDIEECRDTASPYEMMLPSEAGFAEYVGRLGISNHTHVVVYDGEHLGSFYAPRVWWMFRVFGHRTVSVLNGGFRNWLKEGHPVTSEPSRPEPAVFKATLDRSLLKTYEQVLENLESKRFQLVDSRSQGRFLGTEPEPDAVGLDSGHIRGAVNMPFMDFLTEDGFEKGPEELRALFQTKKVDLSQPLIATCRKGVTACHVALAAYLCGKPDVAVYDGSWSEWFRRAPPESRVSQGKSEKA

[26] = system: HEK293; assay: as §1; format: cell-based; conditions: hek293, 48 h
[27] = system: HCT-116; assay: Cytostatic activity in human HCT-116 cells assessed as viable cells at 100 uM incubated for 48 hrs by AnnexinV/PI staining based flow cytometry; format: functional, cell-based
[28] = system: HCT-116; assay: Inhibition of cell migration in human HCT-116 cells at 0.14 to 100 uM measured for 72 hrs by scratch wound healing assay based phase contrast microscopy; format: functional; conditions: dose 0.14-100 µM
[29] = system: HCT-116; assay: Induction of apoptosis in human HCT-116 cells assessed as compact cell monolayer at 100 uM measured for 72 hrs by phase contrast microscopy; format: functional, cell-based

Row | Structure (SMILES) | EC50 [1] | EC50 [2] | EC50 [3] | CC50 [4] | CC50 [5] | CC50 at 48 h [6] | CC50 at 48 h [7] | Activity [8] | IC50 [9] | IC50 [10] | IC50 [11] | EC50 [12] | inhibition [12] | EC50 [13] | EC50 [14] | EC50 [15] | EC50 [16] | EC50 [17] | EC50 [18] | IC50 [24] | further results
1 | Cc1ccc(S(=O)(=O)Nc2ccc(-c3nc4cc(NS(=O)(=O)c5ccc(C)cc5)ccc4o3)cc2)cc1 | 5.9 µM | 13 µM | 11 µM | 51 µM | 74 µM | 15 µM | 32 µM | Active | 27 µM | 30 µM | > 100 µM | 16 µM | Dose-Dependent Effect | 13 µM | 14 µM | 12 µM | 10 µM | 15 µM | 9 µM | > 62.5 µM | inhibition [13]: Dose-Dependent Effect; inhibition [14]: Dose-Dependent Effect; inhibition [15]: Dose-Dependent Effect; inhibition [16]: Dose-Dependent Effect; inhibition [17]: Dose-Dependent Effect; inhibition [19]: Active; inhibition at 50 µM [20]: 100%; inhibition at 50 µM [21]: 100%; inhibition at 50 µM [22]: 100%; Activity [23]: Active; IC50 [25]: > 100 µM
2 | COc1ccc(S(=O)(=O)Nc2ccc3oc(-c4ccc(NC(=O)c5cccc(C)c5[N+](=O)[O-])cc4)nc3c2)cc1 | 4.4 µM | 1.5 µM |  | > 100 µM | > 100 µM |  |  |  | 33 µM | 28 µM | 72 µM | > 50 µM |  | 26 µM | 19 µM | 1.6 µM | 2 µM | 2.6 µM | 2.3 µM | > 62.5 µM | CC50 [6]: 22 µM; CC50 [26]: 12 µM; Activity [27]: Active; inhibition [28]: Active; inhibition [20]: Active; inhibition [21]: Active; inhibition [22]: Active; Activity [29]: inactive; IC50 [25]: > 100 µM
3 | O=C(Nc1ccc(Sc2nc3ccccc3s2)c(Cl)c1)c1cccc(Br)c1O | 12 µM | 22 µM | 20 µM | > 100 µM | > 100 µM | 18 µM | 68 µM | Active | 10 µM | 5.9 µM | 7.7 µM | 21 µM | Dose-Dependent Effect | 32 µM | 17 µM | 11 µM | 12 µM | 9.1 µM | 2 µM | > 62.5 µM | inhibition [13]: Dose-Dependent Effect; inhibition [14]: Dose-Dependent Effect; inhibition [15]: Dose-Dependent Effect; inhibition [16]: Dose-Dependent Effect; inhibition [17]: Dose-Dependent Effect; inhibition [19]: Active; inhibition at 50 µM [20]: 100%; inhibition at 50 µM [21]: 100%; inhibition at 50 µM [22]: 100%; Activity [23]: Active
4 | COc1ccc(S(=O)(=O)Nc2ccc3oc(-c4ccc(NC(=O)c5ccc(Cl)s5)cc4)nc3c2)cc1 | 5.4 µM | 4.6 µM | 1.9 µM | > 100 µM | > 100 µM |  |  |  | 18 µM | 15 µM | 61 µM | > 50 µM |  | 2.3 µM | 2.7 µM | 11 µM | 0.71 µM | 1.1 µM | 5.7 µM | > 62.5 µM | CC50 [6]: 57 µM; CC50 [26]: 15 µM; Activity [27]: Active; inhibition [28]: Active; inhibition [20]: Active; inhibition [21]: Active; inhibition [22]: Active; Activity [29]: inactive; IC50 [25]: > 100 µM
5 | COc1c(Br)cccc1C(=O)Nc1ccc(Sc2nc3ccccc3s2)c(Cl)c1 | 8.5 µM | 10 µM | 11 µM | > 100 µM | > 100 µM | 14 µM | 40 µM | Active | 37 µM | 16 µM |  | 11 µM | Dose-Dependent Effect | 27 µM | 11 µM | 10 µM | 13 µM | 12 µM | 5.5 µM | > 62.5 µM | inhibition [13]: Dose-Dependent Effect; inhibition [14]: Dose-Dependent Effect; inhibition [15]: Dose-Dependent Effect; inhibition [16]: Dose-Dependent Effect; inhibition [17]: Dose-Dependent Effect; inhibition [19]: Active; inhibition at 50 µM [20]: 100%; inhibition at 50 µM [21]: 100%; inhibition at 50 µM [22]: 100%; Activity [23]: Active

Reference: ChEMBL document CHEMBL4819133, “Exploiting the HSP60/10 chaperonin system as a chemotherapeutic target for colorectal cancer” (Bioorg Med Chem, 2021)
